# Assay results published in US8268961B2, “Antibacterial peptides and analogues thereof” (Universita Degli Studi di Siena, priority 2004, dated 2012).
# Like-named read-outs stand apart in the source and are kept apart here. Positions of bridges follow the written chain, without caps; N, C: chain ends. Residues, ends and D or L forms follow the SMILES beside them. Chains are numbered I, II in the order given. No end group written: not given here.
# Assays:
# [1] = test system: Escherichia coli ATCC 25922; assay type: cell-based; details: Escherichia coli ATCC 25922, reference strain
# Description: (§1) MIC is defined as the lowest concentration, in an antibiotic dilution range, that inhibits visible bacterial growth. The importance of MIC sensitivity test is based on the principle that in vitro sensitivity provides a predictive indication of the in vivo efficacy of the antibiotic therapy. Values are expressed as molar concentration and compared to MIC values obtained with commercially available antibiotics such as amikacin, ceftriaxone and levofloxacin (Table 3).
# (§2) Reference strains (Escherichia coli ATCC 25922, Pseudomonas aeruginosa ATCC 27853, Staphylococus aureus ATCC 25923 and Chryseobacterium meningosepticum CCUG 4310) and several recent clinical isolates (including multidrug-resistant ones) of various species (Table 2) were used for conventional susceptibility testing experiments. Minimum Inhibitory Concentration (MIC) was determined by a standard microdilution assay as recommended by the National Commitee for Clinical Laboratory Standards (NCCLS) using cation-supplemented Mueller-Hinton (MH) broth (Oxoid Ltd. Basingstoke, UK) and a bacterial inoculum of 5×10^4 CFU per well, in a final volume of 100 μl. Results were recorded by visual inspection after 24 h of incubation at 37° C.
# [2] = test system: Escherichia coli W99FI0077; assay type: cell-based; details: Escherichia coli W99FI0077, FQR ESCR (ESBL/SHV type)
# Description: as §1, §2
# [3] = test system: Klebsiella pneumoniae W99FI0057; assay type: cell-based; details: Klebsiella pneumoniae W99FI0057, ESCR (ESBL/SHV type)
# Description: as §1, §2
# [4] = test system: Pseudomonas aeruginosa 885149; assay type: cell-based; details: Pseudomonas aeruginosa 885149, FQR AGR ESCR CPR (MBL/IMP-13)
# Description: as §1, §2
# [5] = test system: Pseudomonas aeruginosa 891; assay type: cell-based; details: Pseudomonas aeruginosa 891, FQR AGR ESCR CPR (MBL/VIM-2)
# Description: as §1, §2
# [6] = test system: Pseudomonas aeruginosa ATCC27853; assay type: cell-based; details: Pseudomonas aeruginosa ATCC27853, reference strain
# Description: as §1, §2
# [7] = test system: Staphylococcus aureus ATCC 25923; assay type: cell-based; details: Staphylococcus aureus ATCC 25923, reference strain
# Description: as §1, §2
# [8] = test system: Staphylococus aureus MIU-68A; assay type: cell-based, Staphylococcus aureus; details: Staphylococus aureus MIU-68A, meticillin-susceptible
# Description: as §1, §2
# E. coli strain TG1 [9] = experiment: Test of antibacterial activity (colony growth inhibition) on E. coli strain TG1; assay type: cell-based; details: for Antibacterial activity on E. coli TG1 colony growth: E. coli TG1, colony counting vs control without peptide
# Protocol: The antimicrobic activity of the peptides in linear form (L1, L4, L5, L6) and in MAP form (M1, M4, M5, M6) was assayed on the TG1 strain of E. coli. The peptides were incubated at various concentrations (2-1-0.5-0.25-0.12 mg/ml) with cells of E. coli (OD600=0.2) for about 1 hour at 37° C. Subsequently, the cells were plated on agar at dilution such to allow counting of individual colonies. The antimicrobic activity of the synthesised peptide L 1 and M1 is shown FIG. 1 and is compared to a non correlated MAP peptide (MNC) used as negative control.
# In one example, the tetrabranched MAP peptides with the amino acid sequence: QAKIRVRLSA [SEQ ID NO: 2], KIRVRLSA [SEQ ID NO: 3], QKKIRVRLSA [SEQ ID NO: 4] are used individually in a bacterial colony growth inhibition test. The test is conducted by incubating different concentrations of MAP peptides with E. coli (strain TG1) and plating bacterial cells on agar at a dilution such to allow for individual colonies counting. The following day, the number of colonies grown after treatment with the three MAP peptides is compared.
# Antimicrobic tests were conducted incubating for 75 min at 37° C., 25 μL of E. coli at the OD600 of 0.2 with 25 μl of MAP peptide dissolved in PBS at the various concentrations. The different incubations were further diluted 1:1000 in 2×TY medium and 100 μl were plated on solid 2×TY medium. The plates were left overnight at 30° C. and the individual grown colonies were counted and compared with a control, not treated with MAP peptide.
# E. coli ATCC 25922 = experiment: Minimal bactericidal concentration (MBC); assay type: cell-based
# Protocol: as §2
# (§3) The MBC was determined as recommended by the National Committee for Clinical Laboratory Standards (NCCLS) on strains of E. coli ATCC 25922 and P. aeruginosa ATCC 27853.
# P. aeruginosa ATCC 27853 = experiment: Minimal bactericidal concentration (MBC); assay type: cell-based
# Protocol: as §2, §3
# [10] = test system: murine macrophage cells J774 A.1; experiment: Cytotoxicity test by MTT; assay type: cell-based, mouse
# Protocol: (§4) The cytotoxicity of antibacterial MAP peptides was evaluated on different eukaryotic cell lines by a colorimetric assay (MTT). This assay measures the cells' ability to convert a soluble tetrazolium salt into an insoluble precipitate: formazan. The cytotoxicity of M1 was evaluated on murine macrophagic cells (J774 A.1), murine myeloma cells (SPO) and Chinese hamster ovary epithelium cells (CHO K1). As shown FIG. 4, even at high concentrations (1 mg/ml) M1 cytotoxicity on CHO K1 cells and on SPO cells is low (percent survival is 80-90%).
# (§5) For cytotoxicity tests, different cell lines were used: murine myeloma cells SPO, hamster ovary epithelium cells CHO K 1, murine macrophage cells J774 A.1 and human keratinocytes HaCaT. The cells were plated in medium in RPMI 1640 (SPO and CHO K 1) and DMEM (J774 A.1 and HaCaT) with antibiotics and bovine foetal serum at 10%, in 96-well plates at the concentration of 6×10^4 (SPO, CHO K1 and J774 A.1) and 3×10^4 (HaCaT). Peptides, previously filtered with a 0.2 μm filter disk (Whatman), were added at various concentrations to the different cell lines and left in incubation over night at 37° C. Cell viability was determined adding the MTT tetrazolium salt at the concentration of 0.5 mg/ml and incubating for 90 min. The cells were solubilised with a solution at pH 4.5 containing SDS 10% and dimethylformamide 45% and read at the dual wavelength of 595/650 nm with a plate reader.
# [11] = test system: human keratinocytes HaCaT; experiment: Cytotoxicity test by MTT; assay type: cell-based; details: up to 1 mg/ml
# Protocol: as §5
# [12] = test system: Pichia pastoris yeast strain X33; experiment: Effect on Pichia pastoris yeast colonies; assay type: cell-based; details: Pichia pastoris X33, data not shown
# Protocol: To a volume of 50 μl of culture of Pichia pastoris grown 24 hour at 30° C. in YPD (Yeast Extract/Peptone/Dextrose) medium, 50 μl of MAP peptides (2 mg/ml) were added and left in incubation 150 min at 37° C. Subsequently, 50 μl of each incubation were plated on YPD solid medium and it was allowed to grow for 48 hours at 30° C. The number of colonies grown was compared with a control, where the yeast was not treated with the MAP.
# human erythrocytes = experiment: Haemolysis, Parpart erythrocyte osmotic resistance assay; assay type: cell-based; details: 19 hours incubation, 125 μg/ml
# Protocol: The haemolytic activity of M5 and M6 was also evaluated and is represented FIG. 9. Haemolysis of fresh human erythrocytes was determined at peptide concentrations ranging from 1 to 125 μg/ml. […] By contrast, after 19 hours of incubation, the haemolysis induced by M6 and M5 at 125 μg/ml is 7% and 19%, respectively. The percentage of haemolysis of untreated blood after 19 hours (control) is very limited (<1%).
# The haemolytic activity of the KIRVRLSA [SEQ ID NO: 3] (M5) and […] [SEQ ID NO: 4] (M6) peptides was evaluated by the Parpart erythrocyte osmotic resistance assay in NaCl. The percentage of haemolysis was calculated by means of a calibration curve obtained incubating the erythrocytes with increasing concentrations of NaCl and measuring the absorbance increase, due to haemolysis, at 540 nm. 0.9% NaCl solutions containing the MAP peptides at different concentrations were then prepared, whereto was added human blood in the ratio of 1:100 (v/v). The samples were left at ambient temperature for 30 min and 19 hours; subsequently, a portion was drawn for each incubation, centrifuged at 1500 rpm for 5 min and the absorbance of the super was measured with the spectrophotometer at 540 nm.
# Cytotoxicity test by MTT = assay type: cell-based, mouse; details: mouse, J774 A.1 murine macrophage cells
# Protocol: as §4, §5
# in vitro = assay type: cell-based
# Protocol: as §4
# as §5, with “Peptides, previously filtered with a 0.2 μm filter disk (Whatman), were added at various concentrations to the different cell lines and left in incubation over night at 37° C.” left out
# [13] = Stability to plasmatic protease (HPLC); assay type: in vitro ADME, human
# Protocol: Since the use of peptides as therapeutic agents is severely limited by their in vivo half-life, the stability to human serum protease of the linear peptide L1 and of the MAP peptides M1, M4, M5 and M6 was evaluated. The peptides were incubated at the concentration of 10 mM with plasma and with human serum for 2 and 24 hours; the samples were subsequently analysed in HPLC on column C18 (see materials and methods) to evaluate the presence of linear and MAP peptide not digested by the protease.
# The various peptides in MAP form and the linear peptide (L1) were dissolved in H2O at the concentration of 10 mM and incubated with 10 μl of plasma and human serum for 2 and 24 hours at 37° C. To each sample were added 150 μl of methanol to block the proteolytic reaction; each sample was then centrifuged at 13,000 rpm for 2 min and to the supernatant were added 0.75 ml of 0.1% trifluoroacetic acid. The samples were analysed in reverse phase HPLC on a Vydac C18 semi-preparative column using a 30 min gradient of buffer B from 20% to 95% (buffer A: 0.1% trifluoroacetic acid/water; buffer B: 0.1% trifluoroacetic acid/methanol), to evaluate the presence of linear and MAP peptide after the proteolytic treatment.
# E. coli strain TG1 [14] = experiment: Stability of peptide in solution (time course of antibacterial activity); assay type: physicochemical; details: PBS 0.5 mg/ml, 1, 48 and 72 hours
# Protocol: FIG. 6. Stability of M1 peptide in solution. Time course of antibacterial activity of M1 on E. coli strain TG1. MAP M1 peptide was dissolved in PBS at a concentration of 0.5 mg/ml and bactericide activity was measured 1, 48 and 72 hours after re-suspension in PBS.
# FIG. 8. Stability of M4, M5 and M6 peptides in solution. Time course of antibacterial activity of M4, M5 and M6 on E. coli strain TG1. M4, M5 and M6 peptides were dissolved in PBS at a concentration of 0.5 mg/ml and bactericide activity was measured 1, 48 and 144 hours after re-suspension in PBS.
compound,measurement,setting,value
"CC[C@H](C)[C@H](NC(=O)[C@@H](N)CCCCN)C(=O)N[C@@H](CCCNC(=N)N)C(=O)N[C@H](C(=O)N[C@@H](CCCNC(=N)N)C(=O)N[C@@H](CC(C)C)C(=O)N[C@@H](CO)C(=O)N[C@@H](C)C(=O)NCCCC[C@H](NC(=O)[C@H](C)NC(=O)[C@H](CO)NC(=O)[C@H](CC(C)C)NC(=O)[C@H](CCCNC(=N)N)NC(=O)[C@@H](NC(=O)[C@H](CCCNC(=N)N)NC(=O)[C@@H](NC(=O)[C@@H](N)CCCCN)[C@@H](C)CC)C(C)C)C(=O)NCCCC[C@H](NC(=O)[C@H](CCCCNC(=O)[C@H](C)NC(=O)[C@H](CO)NC(=O)[C@H](CC(C)C)NC(=O)[C@H](CCCNC(=N)N)NC(=O)[C@@H](NC(=O)[C@H](CCCNC(=N)N)NC(=O)[C@@H](NC(=O)[C@@H](N)CCCCN)[C@@H](C)CC)C(C)C)NC(=O)[C@H](C)NC(=O)[C@H](CO)NC(=O)[C@H](CC(C)C)NC(=O)[C@H](CCCNC(=N)N)NC(=O)[C@@H](NC(=O)[C@H](CCCNC(=N)N)NC(=O)[C@@H](NC(=O)[C@@H](N)CCCCN)[C@@H](C)CC)C(C)C)C(=O)N[C@@H](C)C(=O)O)C(C)C [M5, KIRVRLSA] (I: H-KIRVRLSAKKA-OH / II: H-KIRVRLSAK / III: H-KIRVRLSA / IV: H-KIRVRLSA; amide I:9-IV:C, I:10-II:C, II:9-III:C; N-terminus assumed)",MIC (Molarity),[1],3.8 µM
same,MIC (Molarity),[2],31 µM
same,MIC (Molarity),[3],>31 µM
same,MIC (Molarity),[4],7.6 µM
same,MIC (Molarity),[5],3.8 µM
same,MIC (Molarity),[6],3.8 µM
same,MIC (Molarity),[7],3.1e-05 M
same,MIC (Molarity),[7]; listed as KIRVRLSA,~10^−5 M
same,MIC (Molarity),[8],31 µM
same,Antibacterial activity on E. coli TG1 colony growth,E. coli strain TG1 [9],good antibacterial activity
same,MBC (minimal concentration able to kill 99.9% of the inoculum) compared with MIC,E. coli ATCC 25922,equal to the calculated values of MIC
same,MBC (minimal concentration able to kill 99.9% of the inoculum) compared with MIC,E. coli ATCC 25922; listed as KIRVRLSA,equal to the corresponding MIC values
same,MBC (minimal concentration able to kill 99.9% of the inoculum) compared with MIC,P. aeruginosa ATCC 27853,equal to the calculated values of MIC
same,MBC (minimal concentration able to kill 99.9% of the inoculum) compared with MIC,P. aeruginosa ATCC 27853; listed as KIRVRLSA,equal to the corresponding MIC values
same,Effect on cell viability (MTT),"[10]; J774.A1, overnight, 30 μg/ml",did not substantially affect cell viability
same,Vitality of J774 A.1 cells as the concentration of MAP peptides increases (MTT),[10]; J774 A.1,decreases
same,Toxicity for human keratinocyte HaCaT cells (MTT),[11],low toxicity
same,Toxicity for human keratinocyte HaCaT cells (MTT),[11]; listed as KIRVRLSA,particularly resistant
same,Number of yeast colonies vs negative control,[12],did not differ from the negative control
same,haemolysis of human erythrocytes,human erythrocytes,19%
"I: QEKIRVRLSAKKA-OH / II: QEKIRVRLSAK / III: QEKIRVRLSA / IV: QEKIRVRLSA (amide I:11-IV:C, I:12-II:C, II:11-III:C) [M1]",Concentration down to which TG1 E. coli colony growth is prevented,"E. coli strain TG1 [9]; E. coli TG1, MAP form",less effective
same,Antibacterial activity on E. coli TG1 colony growth,E. coli strain TG1 [9],inhibited significantly
same,viability at 1000 µg/mL,Cytotoxicity test by MTT,~50%
same,viability at 1000 µg/mL,in vitro; CHO K1 cells (Chinese hamster ovary epithelium),80 to 90%
same,viability at 1000 µg/mL,"in vitro; mouse, SPO murine myeloma cells",80 to 90%
same,Resistance to plasmatic protease: Plasma 2 h,[13],+
same,Stability in solution: antibacterial activity over time after resuspension,E. coli strain TG1 [14],drop in activity over time
